Target: FABP4 (Homo sapiens, UniProt P15090)
Experiment: TdF (Temperature Dependence Fluorescence) assay, thermal shift, FABP4
Assay type: binding
Method in brief: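 Binding measured as ΔTm versus protein alone; binding constants derived by nonlinear fitting with ΔHL set to −7 kcal/mol and ΔCpL to zero.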

FABP4, sequence (P15090 whole entry, species assumed): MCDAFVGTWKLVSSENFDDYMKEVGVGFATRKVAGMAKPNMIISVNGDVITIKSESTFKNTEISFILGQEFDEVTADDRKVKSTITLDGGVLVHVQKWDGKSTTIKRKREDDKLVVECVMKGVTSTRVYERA

Row | SMILES | Kd [nM] | FABP4 TdF Kd
1 | COc1ccccc1C1(CNC(=O)C2(OCc3cc(=O)n4nc(-c5ccccc5)nc4[nH]3)CCCCC2)CC1 [48-12, N-((1-(2-methoxyphenyl)cyclopropyl)methyl)-1-((7-oxo-2-phenyl-4,7-dihydro-[1,2,4]triazolo[1,5-a]pyrimidin-5-yl)methoxy)cyclohexanecarboxamide] | ≤ 1 | 
2 | COc1ccccc1C1(NC(=O)C2(OCc3cc(=O)n4nc(-c5ccccc5)nc4[nH]3)CCCCC2)CC1 [48-13, N-(1-(2-methoxyphenyl)cyclopropyl)-1-((7-oxo-2-phenyl-4,7-dihydro-[1,2,4]triazolo[1,5-a]pyrimidin-5-yl)methoxy)cyclohexanecarboxamide] | ≤ 1 | 
3 | O=C(NCC1(c2ccccc2Cl)CC1)C1(OCc2cc(=O)n3nc(-c4ccccc4)nc3[nH]2)CCCCC1 [48-14] |  | B (0.5 ≦ B < 0.001 μM)
4 | O=C(NCC1(CO)CCCC1)C1(OCc2cc(=O)n3nc(-c4ccccc4)nc3[nH]2)CCCCC1 [48-15, N-((1-(hydroxymethyl)cyclopentyl)methyl)-1-((7-oxo-2-phenyl-4,7-dihydro-[1,2,4]triazolo[1,5-a]pyrimidin-5-yl)methoxy)cyclohexanecarboxamide] | ≤ 1 | 
5 | O=C(NCC1CC1)C1(OCc2cc(=O)n3nc(-c4ccccc4)nc3[nH]2)CCCCC1 [48-16] |  | B (0.5 ≦ B < 0.001 μM)
6 | O=C(NCCO)C1(OCc2cc(=O)n3nc(-c4ccccc4)nc3[nH]2)CCCCC1 [48-17] |  | B (0.5 ≦ B < 0.001 μM)
7 | O=C(NC1CC1)C1(OCc2cc(=O)n3nc(-c4ccccc4)nc3[nH]2)CCCCC1 [48-18] | > 500 | 
8 | O=C(N1CCOCC1)C1(OCc2cc(=O)n3nc(-c4ccccc4)nc3[nH]2)CCCCC1 [48-19] | > 500 | 
9 | O=C(NCC1CCC1)C1(OCc2cc(=O)n3nc(-c4ccccc4)nc3[nH]2)CCCCC1 [48-20] |  | B (0.5 ≦ B < 0.001 μM)
10 | CC(C)(C)OC(=O)N1CCC(OCc2cc(=O)n3nc(-c4ccccc4)nc3[nH]2)(C(=O)NCC2CC2)CC1 [48-21] | > 500 | 
11 | CC(C)(C)OC(=O)N1CCC(OCc2cc(=O)n3nc(-c4ccccc4)nc3[nH]2)(C(=O)NCC2CCC2)CC1 [48-22] | > 500 | 
12 | CNC(=O)C1(OCc2cc(=O)n3nc(-c4ccccc4)nc3[nH]2)CCCCC1 [48-23] | > 500 | 
13 | COCCNC(=O)C1(OCc2cc(=O)n3nc(-c4ccccc4)nc3[nH]2)CCCCC1 [48-24] |  | B (0.5 ≦ B < 0.001 μM)
14 | CC1(C)CN(C(=O)C2(OCc3cc(=O)n4nc(-c5ccccc5)nc4[nH]3)CCCCC2)CCO1 [48-25] |  | B (0.5 ≦ B < 0.001 μM)
15 | O=C(NCCC1CC1)C1(OCc2cc(=O)n3nc(-c4ccccc4)nc3[nH]2)CCCCC1 [48-26] |  | B (0.5 ≦ B < 0.001 μM)
16 | CN(C(=O)C1(OCc2cc(=O)n3nc(-c4ccccc4)nc3[nH]2)CCCCC1)C1CCCCC1 [48-27] |  | B (0.5 ≦ B < 0.001 μM)
17 | CN(C(=O)C1(OCc2cc(=O)n3nc(-c4ccccc4)nc3[nH]2)CCCCC1)C1CC1 [48-28] |  | B (0.5 ≦ B < 0.001 μM)
18 | CN(CCc1cccc(Cl)c1)C(=O)C1(OCc2cc(=O)n3nc(-c4ccccc4)nc3[nH]2)CCCCC1 [48-29] |  | B (0.5 ≦ B < 0.001 μM)
19 | CN(C)C(=O)C1(OCc2cc(=O)n3nc(-c4ccccc4)nc3[nH]2)CCCCC1 [48-30] | > 500 | 
20 | CN(Cc1cccc(Cl)c1)C(=O)C1(OCc2cc(=O)n3nc(-c4ccccc4)nc3[nH]2)CCCCC1 [48-31] |  | B (0.5 ≦ B < 0.001 μM)
21 | Cn1nccc1NC(=O)C1(OCc2cc(=O)n3nc(-c4ccccc4)nc3[nH]2)CCCCC1 [48-32] |  | B (0.5 ≦ B < 0.001 μM)
22 | Cn1ccc(NC(=O)C2(OCc3cc(=O)n4nc(-c5ccccc5)nc4[nH]3)CCCCC2)n1 [48-33] |  | B (0.5 ≦ B < 0.001 μM)

Row | SMILES | Kd [nM] | FABP4 TdF Kd
23 | O=C(NCC1(c2ccccc2Cl)CCC1)C1(OCc2cc(=O)n3nc(-c4ccccc4)nc3[nH]2)CCCCC1 [48-34] |  | B (0.5 ≦ B < 0.001 μM)
24 | Cc1cc(NC(=O)C2(OCc3cc(=O)n4nc(-c5ccccc5)nc4[nH]3)CCCCC2)n(C)n1 [48-35] | > 500 | 
25 | O=C(NC1(CO)CC1)C1(OCc2cc(=O)n3nc(-c4ccccc4)nc3[nH]2)CCCCC1 [48-36] |  | B (0.5 ≦ B < 0.001 μM)
26 | CN(CCc1ccccc1)C(=O)C1(OCc2cc(=O)n3nc(-c4ccccc4)nc3[nH]2)CCCCC1 [48-37] |  | B (0.5 ≦ B < 0.001 μM)
27 | CCN(C(=O)C1(OCc2cc(=O)n3nc(-c4ccccc4)nc3[nH]2)CCCCC1)C1CCCCC1 [48-38] |  | B (0.5 ≦ B < 0.001 μM)
28 | Cn1nc(C2CC2)cc1NC(=O)C1(OCc2cc(=O)n3nc(-c4ccccc4)nc3[nH]2)CCCCC1 [48-39] |  | B (0.5 ≦ B < 0.001 μM)
29 | O=C(NC1CCCCC1)C1(OCc2cc(=O)n3nc(-c4ccccc4)nc3[nH]2)CCCCC1 [48-40] |  | B (0.5 ≦ B < 0.001 μM)
30 | C#CC1(NC(=O)C2(OCc3cc(=O)n4nc(-c5ccccc5)nc4[nH]3)CCCCC2)CCCCC1 [48-41] |  | B (0.5 ≦ B < 0.001 μM)
31 | CN(CC1(c2ccccc2Cl)CC1)C(=O)C1(OCc2cc(=O)n3nc(-c4ccccc4)nc3[nH]2)CCCCC1 [48-42] |  | B (0.5 ≦ B < 0.001 μM)
32 | CC1(NC(=O)C2(OCc3cc(=O)n4nc(-c5ccccc5)nc4[nH]3)CCCCC2)COC1 [48-43] | > 500 | 
33 | O=C(O)C1(NC(=O)C2(OCc3cc(=O)n4nc(-c5ccccc5)nc4[nH]3)CCCCC2)CCCCC1 [48-44] |  | B (0.5 ≦ B < 0.001 μM)
34 | O=C(NCCc1cccc(Cl)c1)C1(OCc2cc(=O)n3nc(-c4ccccc4)nc3[nH]2)CCCCC1 [48-45] |  | B (0.5 ≦ B < 0.001 μM)
35 | CN(CC1(CO)CCC1)C(=O)C1(OCc2cc(=O)n3nc(-c4ccccc4)nc3[nH]2)CCCCC1 [48-46] |  | B (0.5 ≦ B < 0.001 μM)
36 | CNCC1(COC(=O)C2(OCc3cc(=O)n4nc(-c5ccccc5)nc4[nH]3)CCCCC2)CCC1 [48-47] | > 500 | 
37 | O=C(NC1(c2ccccc2F)CC1)C1(OCc2cc(=O)n3nc(-c4ccccc4)nc3[nH]2)CCCCC1 [48-48] |  | B (0.5 ≦ B < 0.001 μM)
38 | O=C(NCc1ccccc1C(F)(F)F)C1(OCc2cc(=O)n3nc(-c4ccccc4)nc3[nH]2)CCCCC1 [48-49] |  | B (0.5 ≦ B < 0.001 μM)
39 | Cc1ccccc1C1(NC(=O)C2(OCc3cc(=O)n4nc(-c5ccccc5)nc4[nH]3)CCCCC2)CC1 [48-50] |  | B (0.5 ≦ B < 0.001 μM)
40 | O=C(NC1(c2ccccc2)CC1)C1(OCc2cc(=O)n3nc(-c4ccccc4)nc3[nH]2)CCCCC1 [48-51] |  | B (0.5 ≦ B < 0.001 μM)
41 | O=C(NCc1ccccc1)C1(OCc2cc(=O)n3nc(-c4ccccc4)nc3[nH]2)CCCCC1 [48-52] |  | B (0.5 ≦ B < 0.001 μM)
42 | COC(=O)C1(NC(=O)C2(OCc3cc(=O)n4nc(-c5ccccc5)nc4[nH]3)CCCCC2)CCCCC1 [48-53] |  | B (0.5 ≦ B < 0.001 μM)
43 | O=C(NCC1(CO)CC1)C1(OCc2cc(=O)n3nc(-c4ccccc4)nc3[nH]2)CCCCC1 [48-54] |  | B (0.5 ≦ B < 0.001 μM)
44 | COCC1(CNC(=O)C2(OCc3cc(=O)n4nc(-c5ccccc5)nc4[nH]3)CCCCC2)CC1 [48-55] |  | B (0.5 ≦ B < 0.001 μM)

Row | SMILES | Kd [nM] | FABP4 TdF Kd
45 | O=C(NCC1(O)CCCCC1)C1(OCc2cc(=O)n3nc(-c4ccccc4)nc3[nH]2)CCCCC1 [48-56] |  | B (0.5 ≦ B < 0.001 μM)
46 | COc1ccccc1C1(CNC(=O)C2(OCc3cc(=O)n4nc(-c5ccccc5)nc4[nH]3)CCCCC2)CCC1 [48-57] |  | B (0.5 ≦ B < 0.001 μM)
47 | CC(C)(CNC(=O)C1(OCc2cc(=O)n3nc(-c4ccccc4)nc3[nH]2)CCCCC1)N1CCOCC1 [48-58] |  | B (0.5 ≦ B < 0.001 μM)
48 | O=C(NC1(CO)CCCC1)C1(OCc2cc(=O)n3nc(-c4ccccc4)nc3[nH]2)CCCCC1 [48-59] |  | B (0.5 ≦ B < 0.001 μM)
49 | O=C(NCC1(O)CCCC1)C1(OCc2cc(=O)n3nc(-c4ccccc4)nc3[nH]2)CCCCC1 [48-60] |  | B (0.5 ≦ B < 0.001 μM)
50 | O=C(NCC1(O)CCOCC1)C1(OCc2cc(=O)n3nc(-c4ccccc4)nc3[nH]2)CCCCC1 [48-61] |  | B (0.5 ≦ B < 0.001 μM)
51 | O=C(NCC1(CO)CCOCC1)C1(OCc2cc(=O)n3nc(-c4ccccc4)nc3[nH]2)CCCCC1 [48-62] |  | B (0.5 ≦ B < 0.001 μM)
52 | O=C(NC1CCc2c(Cl)cccc21)C1(OCc2cc(=O)n3nc(-c4ccccc4)nc3[nH]2)CCCCC1 (stereo not drawn) [48-63] |  | B (0.5 ≦ B < 0.001 μM)
53 | O=C(N1CCc2ccc(Cl)cc21)C1(OCc2cc(=O)n3nc(-c4ccccc4)nc3[nH]2)CCCCC1 [48-64] |  | B (0.5 ≦ B < 0.001 μM)
54 | O=C(NCC1(c2ccc(Cl)cc2)CCC1)C1(OCc2cc(=O)n3nc(-c4ccccc4)nc3[nH]2)CCCCC1 [48-65] | ≤ 1 | 
55 | O=C(N1CCC[C@@H]1CO)C1(OCc2cc(=O)n3nc(-c4ccccc4)nc3[nH]2)CCCCC1 [48-66] | > 500 | 
56 | O=C(NC1(CO)CCCCC1)C1(OCc2cc(=O)n3nc(-c4ccccc4)nc3[nH]2)CCCCC1 [48-67] |  | B (0.5 ≦ B < 0.001 μM)
57 | NC1(COC(=O)C2(OCc3cc(=O)n4nc(-c5ccccc5)nc4[nH]3)CCCCC2)CCOCC1 [48-68] | > 500 | 
58 | O=C(NC1(CO)CCOCC1)C1(OCc2cc(=O)n3nc(-c4ccccc4)nc3[nH]2)CCCCC1 [48-69] | > 500 | 
59 | COc1cccc(C2(CNC(=O)C3(OCc4cc(=O)n5nc(-c6ccccc6)nc5[nH]4)CCCCC3)CC2)c1 [48-70] |  | B (0.5 ≦ B < 0.001 μM)
60 | COc1cccc(C2(NC(=O)C3(OCc4cc(=O)n5nc(-c6ccccc6)nc5[nH]4)CCCCC3)CC2)c1 [48-71] |  | B (0.5 ≦ B < 0.001 μM)
61 | O=C(NCC1(c2ccc(Cl)cc2)CC1)C1CCCCC1OCc1cc(=O)n2nc(-c3ccccc3)nc2[nH]1 (stereo not drawn) [48-76] |  | B (0.5 ≦ B < 0.001 μM)
62 | CN(CCC1CC1)C(=O)C1(OCc2cc(=O)n3nc(-c4ccccc4)nc3[nH]2)CCCCC1 [48-77] |  | B (0.5 ≦ B < 0.001 μM)
63 | O=C(O)C1(OCc2cc(=O)n3nc(-c4ccccc4)nc3[nH]2)CCCC1 [48-78] | > 500 | 
64 | O=C(Nc1c(Cl)cccc1OCc1cc(=O)n2nc(-c3ccccc3)nc2[nH]1)C1CCC1 [49-2] |  | B (0.5 ≦ B < 0.001 μM)
65 | O=C(Nc1c(Cl)cccc1OCc1cc(=O)n2nc(-c3ccccc3)nc2[nH]1)C1CC1 [49-3] |  | B (0.5 ≦ B < 0.001 μM)
66 | O=C(Nc1c(Cl)cccc1OCc1cc(=O)n2nc(-c3ccccc3)nc2[nH]1)C1CCCC1 [49-4] |  | B (0.5 ≦ B < 0.001 μM)

— US8815875B2 (Merck Sharp & Dohme Corp., priority 2008, dated 2014)
